Results as given in patent US10350210B2, “EGFR and ALK dual inhibitor” (PRECEDO PHARMACEUTICALS CO., LTD, priority 2015, dated 2019).

Tests used:
BaF3 = test: Cell growth (Cell Titer-Glo viability), BaF3; type: cell-based; details: BaF3 mouse primary B cell, 72 hrs
Description: (§1) By testing the effect of the novel kinase inhibitors on the proliferation of cancer cells, the selectivity of the compounds of the present disclosure in inhibiting the proliferation of cancer cells was further assessed. In this example, human non-small cell lung cancer cell NCI-H1975 (expressing EGFR L858R/T790M double mutant gene), human skin squamous carcinoma cell A431 (expressing wild-type EGFR gene), non-small cell lung cancer NCI-H3255 (expressing EGFR L858R mutant gene), non-small cell lung cancer cell NCI-H3122 (expressing ALK gene), human non-small cell lung cancer cell A549 (expressing wild-type EGFR gene), human non-small cell lung cancer cell NCI-H2122 (expressing wild-type EGFR gene), human non-small cell lung cancer cell NCI-H460 (expressing wild-type EGFR gene), human non-small cell lung cancer cell PC-9 (expressing EGFR delE746_A750 mutant gene), Chinese hamster ovary cell CHO (Cricetulus griseus, hamster, Chinese, ovary), Chinese hamster lung cell CHL, human non-small cell lung cancer cell HCC827 (expressing mutant EGFR del19 gene), human lung adenocarcinoma cell HCC4006 (expressing mutant EGFR del19 gene), human non-small cell lung cancer cell NCI-H2228 (expressing wild-type ALK gene), and mouse primary B cell BaF3 were used, and the above cells were all purchased from ATCC (US). In addition, mouse BaF3-TEL-ALK (stably expressing ALK kinase), mouse BaF3-ALK-F1174L (stably expressing mutant ALK F1174L kinase), mouse BaF3-NPM-ALK (stably expressing ALK kinase), mouse BaF3-TEL-EGFR (stably expressing EGFR kinase), mouse BaF3-TEL-EGFR-T790M (stably expressing EGFR T790M mutant kinase), mouse BaF3-FL-EGFR-Del19 (stably expressing EGFR delE746_A750 mutant kinase), mouse BaF3-TEL-EGFR-L858R (stably expressing EGFR L858R mutant kinase), mouse BaF3-FL-EGFR-T790M-L858R (stably expressing EGFR T790M/L858R mutant kinase), mouse BaF3-TEL-INSR (stably expressing INSR protein), mouse BaF3-TEL-IGF1R (stably expressing IGF1R Protein), mouse BaF3-EML4-ALK (stably expressing EML4-ALK Protein), mouse BaF3-TEL-JAK3 (stably expressing JAK3 kinase protein), mouse BaF3-TEL-CSF1R (stably expressing CSF1R protein), and mouse BaF3-TEL-ALK-F1196M (stably expressing ALK F1196M mutant kinase) were also used in this example. The above cell lines were all established by our laboratory via the following process: kinase proteins or protein domain sequences of human ALK, ALK F1174L, EGFR, EGFR T790M, EGFR delE746_A750, EGFR L858, EGFR T790M/L858R, INSR, IGF1R, EML4-ALK, JAK3, CSF1R, ALK F1196M were amplified respectively by PCR, and were respectively inserted into MSCV-Puro vector (Clontech) with N-terminal TEL fragments and/or NPM fragments and/or TPR fragments; the resultants were stably transfected into mouse BaF3 cells by the means of retrovirus, and the IL-3 growth factors were removed, and eventually the ALK, ALK F1174L, EGFR, EGFR T790M, EGFR delE746_A750, EGFR L858, EGFR T790M/L858R, INSR, IGF1R, EML4-ALK, JAK3, CSF1R, ALK F1196M-transferred protein dependent cell lines were obtained.
(§2) The number of viable cells was determined quantitatively by a microplate reader using Cell Titer-Glo® (Promega, US) chemiluminescence cell viability assay kit.

BaF3-TEL-INSR = test: Cell growth (Cell Titer-Glo viability), BaF3-TEL-INSR; type: cell-based; details: Mus musculus; BaF3-TEL-INSR (stably expressing INSR protein), 72 hrs
Description: as §1, §2

BaF3-TEL-EGFR-T790M = test: Cell growth (Cell Titer-Glo viability), BaF3-TEL-EGFR-T790M; type: cell-based; details: Mus musculus; BaF3-TEL-EGFR-T790M (EGFR T790M mutant kinase), 72 hrs
Description: as §1, §2

NCI-H3122 = test: Growth of cancer cells (Cell Titer-Glo viability), NCI-H3122; type: cell-based; details: Homo sapiens; NCI-H3122 (expressing ALK gene), 72 hrs; read-out: GI50
Description: as §1, §2

BaF3-TEL-ALK = test: Cell growth (Cell Titer-Glo viability), BaF3-TEL-ALK; type: cell-based; details: Mus musculus; BaF3-TEL-ALK (stably expressing ALK kinase), 72 hrs
Description: as §1, §2

A549 = test: Growth of cancer cells (Cell Titer-Glo viability), A549; type: cell-based; details: Homo sapiens; A549 (wild-type EGFR), 72 hrs
Description: as §1, §2

PC-9 = test: Growth of cancer cells (Cell Titer-Glo viability), PC-9; type: cell-based; details: Homo sapiens; PC-9 (EGFR delE746_A750 mutant), 72 hrs
Description: as §1, §2

BaF3-TEL-JAK3 = test: Cell growth (Cell Titer-Glo viability), BaF3-TEL-JAK3; type: cell-based; details: Mus musculus; BaF3-TEL-JAK3 (stably expressing JAK3 kinase protein), 72 hrs
Description: as §1, §2

BaF3-TEL-IGF1R = test: Cell growth (Cell Titer-Glo viability), BaF3-TEL-IGF1R; type: cell-based; details: Mus musculus; BaF3-TEL-IGF1R (stably expressing IGF1R protein), 72 hrs
Description: as §1, with “The above cell lines were all established by our laboratory via the following process: kinase proteins or protein domain sequences of human ALK, ALK F1174L, EGFR, EGFR T790M, EGFR delE746_A750, EGFR L858, EGFR T790M/L858R, INSR, IGF1R, EML4-ALK, JAK3, CSF1R, ALK F1196M were amplified respectively by PCR, and were respectively inserted into MSCV-Puro vector (Clontech) with N-terminal TEL fragments and/or NPM fragments and/or TPR fragments; the resultants were stably transfected into mouse BaF3 cells by the means of retrovirus, and the IL-3 growth factors were removed, and eventually the ALK, ALK F1174L, EGFR, EGFR T790M, EGFR delE746_A750, EGFR L858, EGFR T790M/L858R, INSR, IGF1R, EML4-ALK, JAK3, CSF1R, ALK F1196M-transferred protein dependent cell lines were obtained.” left out
as §2

BaF3-EML4-ALK = test: Cell growth (Cell Titer-Glo viability), BaF3-EML4-ALK; type: cell-based; details: Mus musculus, Ba/F3 EML4-ALK; BaF3-EML4-ALK (stably expressing EML4-ALK protein), 72 hrs
Description: as §1, §2

HCC827 = test: Growth of cancer cells (Cell Titer-Glo viability), HCC827; type: cell-based; details: Homo sapiens; HCC827 (mutant EGFR del19), 72 hrs
Description: as §1, §2

NCI-H1975 = test: Growth of cancer cells (Cell Titer-Glo viability), NCI-H1975; type: cell-based; details: Homo sapiens; NCI-H1975 (EGFR L858R/T790M double mutant), 72 hrs
Description: as §1, §2

HCC4006 = test: Growth of cancer cells (Cell Titer-Glo viability), HCC4006; type: cell-based; details: Homo sapiens; HCC4006 (mutant EGFR del19), 72 hrs
Description: as §1, §2

CHL = test: Cell growth (Cell Titer-Glo viability), CHL; type: cell-based, Chinese hamster; details: Cricetulus griseus; CHL Chinese hamster lung cell, 72 hrs; read-out: GI50
Description: as §1, §2

BaF3-FL-EGFR-Del19 = test: Cell growth (Cell Titer-Glo viability), BaF3-FL-EGFR-Del19; type: cell-based; details: Mus musculus; BaF3-FL-EGFR-Del19 (EGFR delE746_A750 mutant kinase), 72 hrs
Description: as §1, §2

NCI-H3255 = test: Growth of cancer cells (Cell Titer-Glo viability), NCI-H3255; type: cell-based; details: Homo sapiens; NCI-H3255 (EGFR L858R mutant), 72 hrs
Description: as §1, §2

NCI-H460 = test: Growth of cancer cells (Cell Titer-Glo viability), NCI-H460; type: cell-based; details: Homo sapiens; NCI-H460 (wild-type EGFR), 72 hrs
Description: as §1, §2

BaF3-ALK-F1174L = test: Cell growth (Cell Titer-Glo viability), BaF3-ALK-F1174L; type: cell-based; details: Mus musculus; BaF3-ALK-F1174L (mutant ALK F1174L kinase), 72 hrs
Description: as §1, §2

BaF3-NPM-ALK = test: Cell growth (Cell Titer-Glo viability), BaF3-NPM-ALK; type: cell-based; details: Mus musculus; BaF3-NPM-ALK (stably expressing ALK kinase), 72 hrs
Description: as §1, §2

BaF3-TEL-EGFR = test: Cell growth (Cell Titer-Glo viability), BaF3-TEL-EGFR; type: cell-based; details: Mus musculus; BaF3-TEL-EGFR (stably expressing EGFR kinase), 72 hrs
Description: as §1, §2

A431 = test: Growth of cancer cells (Cell Titer-Glo viability), A431; type: cell-based; details: Homo sapiens, A-431; A431 (wild-type EGFR), 72 hrs; read-out: GI50
Description: as §1, §2

NCI-H2122 = test: Growth of cancer cells (Cell Titer-Glo viability), NCI-H2122; type: cell-based; details: Homo sapiens; NCI-H2122 (wild-type EGFR), 72 hrs
Description: as §1, §2

NCI-H2228 = test: Growth of cancer cells (Cell Titer-Glo viability), NCI-H2228; type: cell-based; details: Homo sapiens; NCI-H2228 (wild-type ALK), 72 hrs
Description: as §1, §2

CHO = test: Cell growth (Cell Titer-Glo viability), CHO; type: cell-based, Chinese hamster; details: Cricetulus griseus; CHO Chinese hamster ovary cell, 72 hrs; read-out: GI50
Description: as §1, §2

GI50 (BaF3) [nM] | GI50 (BaF3-TEL-EGFR-T790M) [nM] | GI50 (NCI-H3122) [nM] | GI50 (BaF3-TEL-ALK) [nM] | GI50 (A549) [nM] | GI50 (PC-9) [nM] | GI50 (HCC827) [nM] | GI50 (NCI-H1975) [nM] | GI50 (HCC4006) [nM] | GI50 (BaF3-FL-EGFR-Del19) [nM] | GI50 (NCI-H3255) [nM] | GI50 (NCI-H460) [nM] | GI50 (BaF3-ALK-F1174L) [nM] | GI50 (BaF3-NPM-ALK) [nM] | GI50 (BaF3-TEL-EGFR) [nM] | GI50 (A431) [nM] | GI50 (NCI-H2122) [nM] | GI50 (NCI-H2228) [nM] | Structure (SMILES) | GI50 (CHL) [nM] | GI50 (CHO) [nM] | other results
2100 | 30 | 3.5 | 3.1 | 220 | 4.2 | 13 | 5.1 |  |  |  |  |  |  |  |  |  |  | C=CC(=O)Nc1cc(Nc2ncc(Cl)c(Nc3ccccc3C(=O)NC)n2)c(OC)cc1N1CCN(CC)CC1 [Compound 65] |  |  | GI50 (BaF3-TEL-INSR): < 0.3 nM; GI50 (BaF3-TEL-JAK3): 45 nM; GI50 (BaF3-TEL-IGF1R): 2 nM; GI50 (BaF3-EML4-ALK): 8.6 nM
470 | 230 | < 0.3 | < 0.3 |  | 53 | 150 | 880 | 260 | 120 | 640 | 440 | 73 | < 3 | 410 | 840 | 150 | 280 | CCC(=O)Nc1cc(Nc2ncc(Cl)c(Nc3ccccc3S(=O)(=O)C(C)C)n2)c(OC)cc1N1CCC(N2CCN(C)CC2)CC1 [Compound 30, N-(5-(5-chloro-4-(2-(isopropylsulfonyl)phenylamino)pyrimidin-2-ylamino)-4-methoxy-2-(4-(4-methylpiperazin-1-yl)piperidin-1-yl)phenyl)propionamide] | 730 | 1900 | 
4700 | 290 | 32 | 24 | > 10000 | 250 | 370 | 380 | 1100 | 130 |  |  | 1300 |  |  | 1200 | 710 | 560 | C=CC(=O)Nc1cc(Nc2ncc(Cl)c(Nc3ccccc3S(=O)(=O)C(C)C)n2)c(OC)cc1N1CCN(C(=O)OC(C)(C)C)CC1 [Compound 3, tert-butyl 4-(2-acrylamido-4-(5-chloro-4-(2-(isopropylsulfonyl)phenylamino)pyrimidin-2-ylamino)-5-methoxyphenyl)piperazine-1-carbonate] | > 10000 | > 10000 | 
1600 | 100 | < 0.3 | < 0.3 |  | 50 | 6.2 | 59 | 14 | 2 | 130 | 680 | 16 | 2 | 810 | 440 | 230 | 330 | C=CC(=O)Nc1cc(Nc2ncc(C)c(Nc3ccccc3S(=O)(=O)C(C)C)n2)c(OC)cc1N1CCC(N2CCN(C)CC2)CC1 [Compound 24, N-(5-(4-(2-(isopropylsulfonyl)phenylamino)-5-methylpyrimidin-2-ylamino)-4-methoxy-2-(4-(4-methylpiperazin-1-yl)piperidin-1-yl)phenyl)acrylamide] | 660 | 1700 | 
460 | 46 | < 0.3 | < 0.3 |  | 53 | 2.7 | 45 | 14 | 2 | 110 | 660 | 29 | < 3 | 430 | 370 | 200 | 350 | C=CC(=O)Nc1cc(Nc2ncc(Cl)c(Nc3ccccc3S(=O)(=O)C(C)C)n2)c(OC)cc1N1CCC(N2CCN(C)CC2)CC1 [Compound 8, N-(5-(5-chloro-4-(2-(isopropylsulfonyl)phenylamino)pyrimidin-2-ylamino)-4-methoxy-2-(4-(4-methylpiperazin-1-yl)piperidin-1-yl)phenyl)acrylamide] | 800 | 460 | 
2800 | 53 | < 0.3 | 10 | 3300 | 39 | 44 | 40 | 160 | 7 |  |  | 2300 |  |  | 1100 | 170 | 240 | C=CC(=O)Nc1cc(Nc2ncc(Cl)c(Nc3ccccc3S(=O)(=O)C(C)C)n2)c(OC)cc1N1CCN(S(C)(=O)=O)CC1 [Compound 5, N-(5-(5-chloro-4-(2-(isopropylsulfonyl)phenylamino)pyrimidin-2-ylamino)-4-methoxy-2-(4-(methylsulfonyl)piperazin-1-yl)phenyl)acrylamide] | 2300 | 5200 | 
 | 420 | < 0.3 | < 0.3 | 1500 | 540 | 370 |  | 440 |  | 1000 | 470 | 140 | < 3 | 560 | 1300 | 310 | 580 | COc1cc(N2CCC(N3CCN(C)CC3)CC2)ccc1Nc1ncc(Cl)c(Nc2ccccc2S(=O)(=O)C(C)C)n1 [TAE-684, reference compound] |  |  | 
